Test results reported in ChEMBL document CHEMBL4346757, “Synthesis and biological evaluation of 7-methoxy-1-(3,4,5-trimethoxyphenyl)-4,5-dihydro-2H-benzo[e]indazoles as new colchicine site inhibitors” (Bioorg Med Chem Lett, 2019).

Tests used:
Assay type in all cases: functional
U-251 [1] = test: Growth inhibition of human U251 cells assessed as cell growth at 0.1 uM after 48 hrs by SRB assay relative to control; settings: U-251, 48 h, read-out: Activity
NCI/ADR-RES [2] = test: Growth inhibition of human NCI-ADR-RES cells assessed as cell growth at 1 uM after 48 hrs by SRB assay relative to control; settings: read-out: Activity
DU-145 = test: Cytotoxicity against human DU145 cells assessed as growth inhibition after 48 hrs by SRB assay; settings: DU-145, 48 h
SF-539 = test: Growth inhibition of human SF539 cells assessed as cell growth at 100 uM after 48 hrs by SRB assay relative to control; settings: SF-539, 48 h, read-out: Activity
CAKI-1 = test: Growth inhibition of human Caki1 cells assessed as cell growth at 1 uM after 48 hrs by SRB assay relative to control; settings: CAKI-1, 48 h, read-out: Activity
ACHN = test: Growth inhibition of human ACHN cells assessed as cell growth at 0.1 uM after 48 hrs by SRB assay relative to control; settings: read-out: Activity
UACC-257 = test: Growth inhibition of human UACC257 cells assessed as cell growth at 100 uM after 48 hrs by SRB assay relative to control; settings: UACC-257, 48 h, read-out: Activity
RPMI-8226 = test: Growth inhibition of human RPMI8226 cells assessed as cell growth at 0.01 uM after 48 hrs by SRB assay relative to control; settings: RPMI-8226, 48 h, read-out: Activity
U-251 [3] = test: Growth inhibition of human U251 cells assessed as cell growth at 10 uM after 48 hrs by SRB assay relative to control; settings: U-251, 48 h, read-out: Activity
HCT-116 = test: Growth inhibition of human HCT116 cells assessed as cell growth at 0.01 uM after 48 hrs by SRB assay relative to control; settings: HCT-116, 48 h, read-out: Activity
NCI-H460 = test: Growth inhibition of human NCI-H460 cells assessed as cell growth at 0.1 uM after 48 hrs by SRB assay relative to control; settings: NCI-H460, 48 h, read-out: Activity
NCI-H322M = test: Growth inhibition of human NCI-H322M cells assessed as cell growth at 0.01 uM after 48 hrs by SRB assay relative to control; settings: read-out: Activity
MDA-MB-435 = test: Growth inhibition of human MDA-MB-435 cells assessed as cell growth at 0.01 uM after 48 hrs by SRB assay relative to control; settings: MDA-MB-435, 48 h, read-out: Activity
786-0 = test: Cytotoxicity against human 786-0 cells assessed as growth inhibition after 48 hrs by SRB assay; settings: 786-0, 48 h
OVCAR-8 = test: Growth inhibition of human OVCAR8 cells assessed as cell growth at 100 uM after 48 hrs by SRB assay relative to control; settings: OVCAR-8, 48 h, read-out: Activity
Hs-578T = test: Growth inhibition of human Hs 578T cells assessed as cell growth at 100 uM after 48 hrs by SRB assay relative to control; settings: read-out: Activity
IGROV-1 [4] = test: Cytotoxicity against human IGROV1 cells assessed as growth inhibition after 48 hrs by SRB assay; settings: IGROV-1, 48 h
HCT-15 = test: Growth inhibition of human HCT15 cells assessed as cell growth at 100 uM after 48 hrs by SRB assay relative to control; settings: HCT-15, 48 h, read-out: Activity
NCI-H522 = test: Growth inhibition of human NCI-H522 cells assessed as cell growth at 1 uM after 48 hrs by SRB assay relative to control; settings: NCI-H522, 48 h, read-out: Activity
K562 = test: Growth inhibition of human K562 cells assessed as cell growth at 10 uM after 48 hrs by SRB assay relative to control; settings: K562, 48 h, read-out: Activity
NCI-H23 = test: Growth inhibition of human NCI-H23 cells assessed as cell growth at 1 uM after 48 hrs by SRB assay relative to control; settings: NCI-H23, 48 h, read-out: Activity
IGROV-1 [5] = test: Growth inhibition of human IGROV1 cells assessed as cell growth at 0.1 uM after 48 hrs by SRB assay relative to control; settings: IGROV-1, 48 h, read-out: Activity
HOP-92 = test: Cytotoxicity against human HOP92 cells assessed as growth inhibition after 48 hrs by SRB assay; settings: HOP-92, 48 h
SNB-19 = test: Cytotoxicity against human SNB19 cells assessed as growth inhibition after 48 hrs by SRB assay; settings: SNB-19, 48 h
LOX IMVI = test: Growth inhibition of human LOXIMVI cells assessed as cell growth at 0.01 uM after 48 hrs by SRB assay relative to control; settings: read-out: Activity
NCI/ADR-RES [6] = test: Cytotoxicity against human NCI-ADR-RES cells assessed as growth inhibition after 48 hrs by SRB assay
SK-MEL-5 = test: Growth inhibition of human SK-MEL-5 cells assessed as cell growth at 0.1 uM after 48 hrs by SRB assay relative to control; settings: SK-MEL-5, 48 h, read-out: Activity
SN12C = test: Growth inhibition of human SN12C cells assessed as cell growth at 0.1 uM after 48 hrs by SRB assay relative to control; settings: read-out: Activity
U-251 [7] = test: Growth inhibition of human U251 cells assessed as cell growth at 100 uM after 48 hrs by SRB assay relative to control; settings: U-251, 48 h, read-out: Activity
HT-29 = test: Growth inhibition of human HT-29 cells assessed as cell growth at 1 uM after 48 hrs by SRB assay relative to control; settings: HT-29, 48 h, read-out: Activity
[8] = read-out: LC50 (the source's name)
[9] = read-out: pLC50 (the source's name) (converted)

Compound: COc1ccc2c(c1)CCc1n[nH]c(-c3cc(OC)c(OC)c(OC)c3)c1-2
- growth at 0.1 µM (U-251 [1]): 10%
- growth at 1 µM (NCI/ADR-RES [2]): -9%
- GI50 (DU-145; read-out: GI50): < 0.01 µM
- CC50 (DU-145; [8]): > 100 µM
- TGI (DU-145; read-out: TGI): > 100 µM
- GI50 (DU-145; read-out: pGI50 (converted)): < 0.01 µM
- CC50 (DU-145; [9]): > 100 µM
- TGI (DU-145; read-out: pTGI): > 100 µM
- growth at 100 µM (SF-539): -78%
- growth at 1 µM (CAKI-1): 22%
- growth at 0.1 µM (ACHN): 27%
- growth at 100 µM (UACC-257): -49%
- growth at 0.01 µM (RPMI-8226): 45%
- growth at 10 µM (U-251 [3]): 5%
- growth at 0.01 µM (HCT-116): 7%
- growth at 0.1 µM (NCI-H460): 2%
- growth at 0.01 µM (NCI-H322M): 47%
- growth at 0.01 µM (MDA-MB-435): -45%
- GI50 (786-0; read-out: GI50): < 0.01 µM
- CC50 (786-0; [8]): > 100 µM
- TGI (786-0; read-out: TGI): 11.5 µM
- GI50 (786-0; read-out: pGI50 (converted)): < 0.01 µM
- CC50 (786-0; [9]): > 100 µM
- TGI (786-0; read-out: pTGI (converted)): 11.5 µM
- growth at 100 µM (OVCAR-8): -38%
- growth at 100 µM (Hs-578T): -18%
- GI50 (IGROV-1 [4]; read-out: GI50): < 0.01 µM
- CC50 (IGROV-1 [4]; [8]): > 100 µM
- TGI (IGROV-1 [4]; read-out: TGI): 23.7 µM
- GI50 (IGROV-1 [4]; read-out: pGI50 (converted)): < 0.01 µM
- CC50 (IGROV-1 [4]; [9]): > 100 µM
- TGI (IGROV-1 [4]; read-out: pTGI (converted)): 24 µM
- growth at 100 µM (HCT-15): -41%
- growth at 1 µM (NCI-H522): -16%
- growth at 10 µM (K562): 17%
- growth at 1 µM (NCI-H23): 7%
- growth at 0.1 µM (IGROV-1 [5]): 29%
- GI50 (HOP-92; read-out: GI50): < 0.01 µM
- CC50 (HOP-92; [8]): 99.8 µM
- TGI (HOP-92; read-out: TGI): 28.5 µM
- GI50 (HOP-92; read-out: pGI50 (converted)): < 0.01 µM
- CC50 (HOP-92; [9]): 100 µM
- TGI (HOP-92; read-out: pTGI (converted)): 28.2 µM
- GI50 (SNB-19; read-out: GI50): < 0.01 µM
- CC50 (SNB-19; [8]): > 100 µM
- TGI (SNB-19; read-out: TGI): 46.3 µM
- GI50 (SNB-19; read-out: pGI50 (converted)): < 0.01 µM
- CC50 (SNB-19; [9]): > 100 µM
- TGI (SNB-19; read-out: pTGI (converted)): 46.8 µM
- growth at 0.01 µM (LOX IMVI): 21%
- GI50 (NCI/ADR-RES [6]; read-out: GI50): < 0.01 µM
- LC50 (NCI/ADR-RES [6]; read-out: LC50): > 100 µM
- TGI (NCI/ADR-RES [6]; read-out: TGI): < 0.01 µM
- GI50 (NCI/ADR-RES [6]; read-out: pGI50 (converted)): < 0.01 µM
- LC50 (NCI/ADR-RES [6]; read-out: pLC50 (converted)): > 100 µM
- TGI (NCI/ADR-RES [6]; read-out: pTGI): < 0.01 µM
- growth at 0.1 µM (SK-MEL-5): -26%
- growth at 0.1 µM (SN12C): 35%
- growth at 100 µM (U-251 [7]): -72%
- growth at 1 µM (HT-29): 5%
